From PMC9000480, “Enhancement of the Anti-Inflammatory Activity of NSAIDs by Their Conjugation with 3,4,5-Trimethoxybenzyl Alcohol” (Molecules, 2022)
Marks after values point to notes of the source that are not given here.

Tests used:
[1] = tested on: carrageenan-induced rat paw edema; assay: carrageenan-induced rat paw edema; assay type: in vivo; details: i.p. 0.15 mmol/kg, 3.5 h post carrageenan, female rats, vs controls given carrageenan only; for inhibition in vivo at 150 µmol/kg: Rattus norvegicus, ip, 3.5 h
Protocol: Carrageenan-induced inflammation model has significant value for evaluating anti-inflammatory agents. Carrageenan administration causes an acute and local inflammatory response. In the early phase (0–1 h), bradykinin, histamine, tachykinins, complement and reactive oxygen and nitrogen species are involved, whereas prostaglandins and various cytokines such as IL-1β, TNF-α are released in the second phase, more than one hour after administration.
Total of 0.1 mL of an aqueous solution of carrageenan (1% w/v) was injected i.d. into the right hind paw of rats, with the left paw serving as control. The tested compounds (suspended in water with a few drops of Tween 80) were given i.p. (0.15 mmol/kg) 5 min before the carrageenan administration. After 3.5 h, the hind paws were excised and weighed separately. The produced edema was estimated as paw weight increase.

ovine COX-1 = tested on: T1, ovine COX-1; assay: COX Inhibitor Screening Assay kit, COX-1; assay type: biochemical; details: compound 0.05 μM, arachidonic acid 0.1 μM
T1 construct: purchased Cayman Chemical Co., Ann Arbor, MI, USA
Excerpt: […]. κ-Carrageenan and lipoxygenase type I-B from soybean were purchased from Sigma (St. Louis, MO, USA). COX inhibition was estimated using the “COX Inhibitor Screening Assay” kit (Cayman Chemical Co., Ann Arbor, MI, USA). For the in vivo experiments, female Wistar rats (160–180 g, 4–5 months old) were kept in the Centre of the School of Veterinary Medicine (EL54 BIO42), Aristotelian University of Thessaloniki, which is registered by the official state veterinary authorities (presidential degree 56/2013, in harmonization with the European Directive 2010/63/EEC). The Animal Ethics Committee of the Prefecture of Central Macedonia (no. 270079/2500) approved the experimental protocols.
(§1) The effect of compounds on COX-1 and COX-2 activity was measured using a commercial kit and applying the instructions of the manufacturer. The kit uses ovine COX-1 and human recombinant COX-2 enzymes. The assay measures PGF2a produced by SnCl2 reduction of COX-derived PGH2. The prostanoid product was quantified via enzyme immunoassay using a broadly specific antibody that binds to all the major prostaglandin compounds.

soybean LOX = molecular target: T2, soybean LOX (Glycine max, UniProt P08170); assay: inhibition of soybean lipoxygenase; assay type: biochemical; details: for IC50: after 7 min of incubation, sodium linoleate 100 μM, pH 9.0, 28 °C; for % inhibition of lipoxygenase: highest soluble concentration
T2 construct: purchased Sigma (St. Louis, MO, USA)
T2 sequence (P08170 1-839): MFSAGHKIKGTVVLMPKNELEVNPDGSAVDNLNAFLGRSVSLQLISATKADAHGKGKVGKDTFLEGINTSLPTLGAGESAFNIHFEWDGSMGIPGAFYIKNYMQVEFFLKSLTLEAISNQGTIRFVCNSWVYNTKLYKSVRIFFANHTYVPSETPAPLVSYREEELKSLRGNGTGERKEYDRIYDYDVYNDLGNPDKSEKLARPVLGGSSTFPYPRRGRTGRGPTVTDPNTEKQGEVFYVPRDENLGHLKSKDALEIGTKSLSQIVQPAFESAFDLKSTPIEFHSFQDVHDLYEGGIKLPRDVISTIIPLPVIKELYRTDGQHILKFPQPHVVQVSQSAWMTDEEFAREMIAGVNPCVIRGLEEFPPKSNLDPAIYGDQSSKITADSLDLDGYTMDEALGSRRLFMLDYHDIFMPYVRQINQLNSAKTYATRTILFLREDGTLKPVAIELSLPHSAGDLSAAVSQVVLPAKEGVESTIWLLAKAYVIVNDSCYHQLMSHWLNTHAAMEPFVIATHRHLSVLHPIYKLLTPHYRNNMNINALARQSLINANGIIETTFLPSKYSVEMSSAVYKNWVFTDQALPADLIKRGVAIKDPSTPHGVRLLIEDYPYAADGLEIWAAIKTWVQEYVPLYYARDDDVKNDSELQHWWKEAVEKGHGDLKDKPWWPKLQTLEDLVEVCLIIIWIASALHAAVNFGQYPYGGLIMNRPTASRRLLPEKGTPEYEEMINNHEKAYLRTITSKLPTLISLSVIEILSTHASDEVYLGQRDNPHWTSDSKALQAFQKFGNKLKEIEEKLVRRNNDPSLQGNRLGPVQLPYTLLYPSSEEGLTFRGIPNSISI
Protocol: Soybean LOX, because of structural and functional similarities with mammalian LOXs, is commonly used for the study of anti-inflammatory agents.
The reaction mixture contained (final concentration) the test compounds, dissolved in ethanol (10–300 μM), or the solvent (control), soybean LOX, dissolved in 0.9% NaCl solution (250 u/mL) and sodium linoleate (100 μM), in Tris–HCl buffer, pH 9.0. […] For the estimation of the type of inhibition, the above experiments were repeated, using 1 mM sodium linoleate, which is higher than the saturating substrate concentration.

[2] = tested on: rat hepatic microsomal membranes; assay: Fe(II)-ascorbate induced lipid peroxidation of rat hepatic microsomal membranes; details: 1 mM, after 45 min of incubation
Protocol: Enzymatically inactivated rat hepatic microsomal membranes, rich in polyunsaturated fatty acids, were used and peroxidation was induced by Fe(II)-ascorbate. Compounds 21 and 22, expected to exert antioxidant activity due to the tyrosine phenolic group, were tested.
The peroxidation of heat-inactivated (90°, 90 s) rat liver microsomal fraction was induced by ascorbic acid (0.2 mM) and ferrous sulphate (10 μΜ). The studied compounds, in dimethylsulfoxide, were added at 1 mM. Aliquots were taken from the incubation mixture (37 °C) for 45 min. Lipid peroxidation was assessed spectrophotometrically (535/600 nm) as 2-thiobarbituric acid reactive material.

human recombinant COX-2 = tested on: T3, human recombinant COX-2; assay: COX Inhibitor Screening Assay kit, COX-2; assay type: biochemical; details: compound 0.05 μM, arachidonic acid 0.1 μM
T3 construct: purchased Cayman Chemical Co., Ann Arbor, MI, USA
Protocol: COX inhibition was estimated using the “COX Inhibitor Screening Assay” kit (Cayman Chemical Co., Ann Arbor, MI, USA).
as §1

[3] = preliminary stability in acetone-water (TLC); assay type: physicochemical; details: 4:1 acetone-water, 1 mM, 37 °C, up to 72 h
Protocol: (§2) In a preliminary stability control experiment, compound 16, with the highest anti-inflammatory activity, was dissolved in an acetone-water mixture and incubated for 72 h at 37 °C. Samples were tested by thin layer chromatography (TLC) at the time of the preparation and after 2.5, 5, 24, 48, and 72 h. The same experiment was repeated, but plasma from a healthy rat was added, and tested by TLC at the time of preparation and after 24 h of incubation at 37 °C.
(§3) A solution of 16 in a 4:1 acetone–water mixture (1 mM) was prepared and 5 μL of this were applied on a TLC silica gel aluminum sheet and developed with petroleum ether-ethyl acetate (1:1), at the time of preparation and after 2.5, 5, 24, 48, and 72 h of incubation (37 °C). The same experiment was repeated, adding 1 mL of rat plasma. TLC was performed at the time of preparation and after 24 h.

[4] = preliminary stability with rat plasma (TLC); assay type: in vitro ADME; details: acetone-water with rat plasma added, 37 °C, 24 h
Protocol: as §2, §3

| IC50 (soybean LOX) | melting point | SMILES | inhibition in vivo at 150 µmol/kg [1] | other results |
| --- | --- | --- | --- | --- |
| 64 µM | 86 to 88 °C | COc1cc(COC(=O)C(Cc2ccc(O)cc2)NC(=O)C(C)c2ccc(CC(C)C)cc2)cc(OC)c1OC (stereo not shown) [Compound 21, 3,4,5-Trimethoxybenzyl3-(4-hydroxyphenyl)-2-(2(4-isobutylphenyl)propanamido) propanoate] | 67% | COX-1 % Inhibition (ovine COX-1): 51%; effect against lipid peroxidation [2]: poor |
|  |  | CC(C)Cc1ccc(C(C)C(=O)O)cc1 (stereo not shown) [Ibuprofen, reference compound] | 36% | % Edema Inhibition [1]: 36 ** %; COX-1 % Inhibition (ovine COX-1): 68% |
| 128 µM | 58 to 60 °C | COc1cc(COC(=O)C2CCCN2C(=O)Cc2c[nH]c3ccccc23)cc(OC)c1OC (stereo not shown) [Compound 24, 3,4,5-Trimethoxybenzyl1-(2-(1H-indol-3-yl)acetyl)pyrrolidine-2carboxylate] | 0% |  |
| 160 µM | 73 to 75 °C | COc1cc(COC(=O)CCNC(=O)C(C)c2ccc(CC(C)C)cc2)cc(OC)c1OC (stereo not shown) [Compound 15, 3,4,5-Trimethoxybenzyl 3-(2-(4-isobutylphenyl)propanamido)propanoate] | 35% |  |
|  |  | COc1ccc2cc([C@H](C)C(=O)O)ccc2c1 [Naproxen] | 11% | COX-1 % Inhibition (ovine COX-1): 34%; COX-1 % Inhibition (ovine COX-1; listed as naproxen): mild activity; COX-2 % Inhibition (human recombinant COX-2): 17%; COX-2 % Inhibition (human recombinant COX-2; listed as naproxen): weak inhibitor |
|  |  | COC(=O)C1CCCN1C(=O)Cc1c[nH]c2ccccc12 (stereo not shown) [Compound 14a, 1-(2-(1H-indol-3-yl)acetyl)pyrrolidine-2-carboxylic acid (14) methyl ester] | 0% |  |
|  |  | COC(=O)CCNC(=O)C(C)c1ccc(CC(C)C)cc1 (stereo not shown) [Compound 5a] | 14% |  |
| 85 µM | 68 to 70 °C | COc1cc(COC(=O)C(Cc2ccc(O)cc2)NC(=O)C(C)c2cccc(C(=O)c3ccccc3)c2)cc(OC)c1OC (stereo not shown) [Compound 22, 3,4,5-Trimethoxybenzyl 2-(2-(3-benzoylphenyl)propanamido)-3-(4-hydroxyphenyl) propanoate] | 59% | effect against lipid peroxidation [2]: poor |
|  |  | COc1cc(COC(=O)CCNC(=O)C(C)c2cccc(C(=O)c3ccccc3)c2)cc(OC)c1OC (stereo not shown) [Compound 16, 3,4,5-Trimethoxybenzyl 3-(2-(3-benzoylphenyl)propanamido)propanoate] | 91% | % Edema Inhibition [1]: 91 *** %; COX-1 % Inhibition (ovine COX-1): 28%; % inhibition of lipoxygenase (soybean LOX; at 150 μΜ): 20%; stability (hydrolysis, TLC) [3]: not hydrolyzed; stability (hydrolysis, TLC) [4]: not hydrolyzed |
|  | 50 to 53 °C | COc1ccc2cc(C(C)C(=O)N3CCCC3C(=O)OCc3cc(OC)c(OC)c(OC)c3)ccc2c1 (stereo not shown) [Compound 20, 3,4,5-Trimethoxybenzyl1-(2-(6-methoxynaphthalen-2-yl)propanoyl) pyrrolidine-2-carboxylate] | 37% | % inhibition of lipoxygenase (soybean LOX; at 100 μΜ): 40% |
|  |  | COC(=O)C1CCCN1C(=O)C(C)c1ccc(CC(C)C)cc1 (stereo not shown) [Compound 8a] | 20% |  |
| 41 µM |  | COc1ccc2cc([C@H](C)C(=O)NCCC(=O)OCc3cc(OC)c(OC)c(OC)c3)ccc2c1 [Compound 17, (S)-3,4,5-trimethoxybenzyl 3-(2-(6-methoxynaphthalen-2-yl)propanamido)propanoate] | 23% |  |
| 83 µM | 85 to 87 °C | COc1cc(COC(=O)C2CCCN2C(=O)C(C)c2ccc(CC(C)C)cc2)cc(OC)c1OC (stereo not shown) [Compound 18] | 49% |  |
|  |  | CC(C(=O)O)c1cccc(C(=O)c2ccccc2)c1 (stereo not shown) [Ketoprofen] |  | COX-1 % Inhibition (ovine COX-1): 94%; COX-2 % Inhibition (human recombinant COX-2): 49% |
|  |  | COc1cc(COC(=O)C(C)NC(=O)Cc2c[nH]c3ccccc23)cc(OC)c1OC (stereo not shown) [Compound 23, 3,4,5-Trimethoxybenzyl 2-(2-(1H-indol-3-yl)acetamido)propanoate] | 40.5% | % inhibition of lipoxygenase (soybean LOX; at 150 μΜ): 15% |
|  |  | O=C(O)Cc1c[nH]c2ccccc12 [Indole-3-acetic acid, reference compound] | 0% | % Edema Inhibition [1]: inactive |
| 140 µM |  | COc1cc(COC(=O)C2CCCN2C(=O)C(C)c2cccc(C(=O)c3ccccc3)c2)cc(OC)c1OC (stereo not shown) [Compound 19, 3,4,5-Trimethoxybenzyl 1-(2-(3-benzoylphenyl)propanoyl)pyrrolidine-2 carboxylate] | 51% |  |
|  |  | COC(=O)C(C)NC(=O)Cc1c[nH]c2ccccc12 (stereo not shown) [Compound 13a] | 18% |  |
